Data on four compounds can be found in publication PMC6501587 (The Journal of neuroscience : the official journal of the …, 2009).

Numbering of substitutions follows the chain as printed. Entries after “also recorded” stand apart in the source; their conditions may differ. Read-outs that look alike come from different tables or passages of the source.

For data set [1], the target named is T1, P2X2aR (Rattus norvegicus, UniProt P49653).
T1 sequence (P49653 1-472): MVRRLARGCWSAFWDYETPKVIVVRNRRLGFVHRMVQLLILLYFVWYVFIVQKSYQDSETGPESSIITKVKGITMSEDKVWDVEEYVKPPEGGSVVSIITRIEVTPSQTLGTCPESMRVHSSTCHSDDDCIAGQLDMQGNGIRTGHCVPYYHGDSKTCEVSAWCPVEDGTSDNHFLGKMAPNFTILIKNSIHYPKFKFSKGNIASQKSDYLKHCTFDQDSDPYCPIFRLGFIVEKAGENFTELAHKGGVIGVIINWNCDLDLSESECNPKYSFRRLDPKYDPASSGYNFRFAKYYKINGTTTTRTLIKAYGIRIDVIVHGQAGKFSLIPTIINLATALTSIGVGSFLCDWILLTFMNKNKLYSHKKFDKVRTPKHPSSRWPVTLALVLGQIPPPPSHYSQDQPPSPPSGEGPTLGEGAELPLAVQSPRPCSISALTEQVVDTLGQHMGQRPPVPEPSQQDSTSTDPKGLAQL
Description: ATP-evoked currents, whole-cell patch clamp, HEK293 cells expressing P2X2aR. Format: cell-based. Background: The patch-clamp technique gives a direct electrical read-out from membranes.

The subject of the next data set is P2X2R. Conditions: after application; ref Mason et al. (2004); cited from earlier work.
Data set [2] has as its target T1, P2X2aR. It counts as cell-based.
Data set [3] addresses T2, P2X2bR (Rattus norvegicus, UniProt P49653, DEL370-438).
T2 sequence (P49653 with tags, fused parts or gaps DEL370-438): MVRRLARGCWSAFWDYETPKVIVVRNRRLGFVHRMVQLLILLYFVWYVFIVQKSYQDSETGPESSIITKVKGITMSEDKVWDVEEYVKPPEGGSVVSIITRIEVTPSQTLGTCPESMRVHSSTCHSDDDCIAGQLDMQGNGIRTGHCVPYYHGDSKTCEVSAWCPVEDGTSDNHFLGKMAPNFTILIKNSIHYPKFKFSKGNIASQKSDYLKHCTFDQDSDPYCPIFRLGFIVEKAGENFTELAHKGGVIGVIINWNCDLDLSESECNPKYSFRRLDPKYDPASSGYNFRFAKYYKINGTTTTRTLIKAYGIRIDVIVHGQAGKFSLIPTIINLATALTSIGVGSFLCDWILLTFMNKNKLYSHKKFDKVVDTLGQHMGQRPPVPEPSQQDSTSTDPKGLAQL
Format: cell-based. The following applies: HEK293 cells.

Data set [4] has as its target T2, P2X2bR. Format: cell-based. Conditions: oocytes.
The test system of the next data set is P2X4/2a chimera. It counts as cell-based, rat. Conditions: oocytes.
Data set [5] has as its target T3, P2X2a-C430S (Rattus norvegicus, UniProt P49653, C430S).
T3 sequence (P49653 1-472 C430S): T1 sequence (P49653 1-472) with C430S
Format: cell-based.

The next data set has as its system P2X4/2b chimera. Format: cell-based, rat. The following applies: oocytes.
The next data set deals with T4, P2X2a-C430A (Rattus norvegicus, UniProt P49653, C430A).
T4 sequence (P49653 1-472 C430A): T1 sequence (P49653 1-472) with C430A
It counts as cell-based. Conditions: oocytes.

The target in another data set is T5, P2X4R (Rattus norvegicus, UniProt P51577).
T5 sequence (P51577 1-388): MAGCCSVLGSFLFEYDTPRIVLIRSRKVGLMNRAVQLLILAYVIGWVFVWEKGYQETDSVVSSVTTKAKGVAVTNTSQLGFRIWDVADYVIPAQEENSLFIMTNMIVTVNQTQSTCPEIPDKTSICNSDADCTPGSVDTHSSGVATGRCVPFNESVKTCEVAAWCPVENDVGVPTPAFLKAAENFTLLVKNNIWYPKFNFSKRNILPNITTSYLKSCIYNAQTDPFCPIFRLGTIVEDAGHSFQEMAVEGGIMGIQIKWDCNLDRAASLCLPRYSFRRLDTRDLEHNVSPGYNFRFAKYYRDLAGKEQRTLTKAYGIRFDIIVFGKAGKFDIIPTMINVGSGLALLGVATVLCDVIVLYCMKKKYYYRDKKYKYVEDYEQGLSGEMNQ
It counts as cell-based. The following applies: oocytes.

The target of data set [6] is T3, P2X2a-C430S. It counts as cell-based. The following applies: HEK293 cells.
The subject of a further data set is P2X4/2a-C430A chimera. Conditions: oocytes; supplemental Fig. 3.

Turning to `C=C(C)[C@H]1Cc2c(ccc3c2O[C@@H]2COc4cc(OC)c(OC)cc4[C@@H]2C3=O)O1` [rotenone], the “fold-increase of the ATP-evoked currents” value worked out at 1.52 ± 0.08 fold on P2X2aR [1] (600 nM rotenone) and 1.75 ± 0.38 fold at P2X2aR [2] (600 nM rotenone, 10 min prior to ATP, oocytes). Also, the “effect on P2X2R-mediated currents” value with P2X2R is “transient increase followed by sustained inhibition”. The potentiation by rotenone entry at P2X2bR [3] (600 nM) and on P2X2bR [4] (600 nM) was “not observed” each time.

mercury: the “increase of ATP-evoked currents” value on P2X2aR [1] (10 μM metal, ATP ~EC15) was 5.9 ± 1.3 fold. Also, in the data set with P2X4/2a chimera (10 μM mercury), the “effect on maximal ATP response” value is “without significantly altering”. For the same compound, the “potentiation of 1 μM ATP-induced current” value with P2X4/2a chimera (10 μM metal, 1 μM ATP) was 3.7 ± 0.8 fold. Also, the “10–90% deactivation time” value was determined as 104.7 ± 11.5 s in the data set on P2X4/2a chimera (in the presence of mercury) and 17.2 ± 2.8 s at P2X2aR [2] (in the presence of mercury, oocytes). In addition, in the data set on P2X4/2a chimera (in the presence of mercury), the “increase of 10–90% deactivation time” value stood at 9 fold. The sensitivity to mercury result in the data set on P2X4/2a chimera is given as “mercury-sensitive; also recorded: residual mercury-dependent potentiation”; at P2X2a-C430S [5] (oocytes, supplemental Fig. 3) it was “residual mercury-dependent potentiation”; with P2X4/2b chimera (10 μM), “mercury resistant; also recorded: insensitivity”; at P2X2a-C430A (supplemental Fig. 3) it was “residual mercury-dependent potentiation”; on P2X2bR [4] (supplemental Fig. 3), “residual mercury-dependent potentiation”; in the data set on P2X4/2a-C430A chimera, “insensitivity”. In addition, the “potentiation of ATP-evoked currents” value is 2.2 ± 0.9 fold at P2X2a-C430S [5] (10 μM mercury, ATP ~EC15, oocytes); 12.3 ± 2.6 fold on P2X2aR [2] (10 μM metal, 1 min prior and during ATP (~EC15), oocytes); 3.3 ± 0.7 fold at P2X2a-C430A (10 μM mercury, ATP ~EC15). The results for the reversibility of effect result at P2X2a-C430S [5] (mercury) and on P2X2a-C430A (mercury) were “easily reversible” and “totally reversible; also recorded: easily reversible”, respectively. Besides, the “effect on ATP concentration-response curve” value in the data set on P2X4/2b chimera (10 μM mercury) is on record as “did not displace”. In addition, the “effect on receptor deactivation” value is on record as “nor modified receptor deactivation” with P2X4/2b chimera (10 μM mercury) and “not significantly affected” with P2X4/2b chimera (10 μM mercury, listed as Mercury). At P2X2aR [2] (10 μM metal pre-applied 1 min and co-applied with 30 μM ATP, oocytes), the “effect on the ATP-gated current” value was “potentiated”. In addition, on P2X2aR [2] (20 min after washout of 10 μM metal, oocytes), the “potentiation of response still present after washout” value worked out at 35 ± 12%. Further, the “reversibility of effect on peak current amplitude” value at P2X2aR [2] (after 10 and 20 min washouts, oocytes) is reported as “not completely reversible”. In addition, the “decrease in the current amplitude on prolonged washout of the metal” value on P2X2aR [2] (mercury-induced potentiation, wild type receptor) was approximately 70%. On P2X4R (10 μM metal pre-applied 1 min and co-applied with 10 μM ATP), the “effect on ATP-induced currents” value is recorded as “inhibited”. In addition, the “washout time to attain control currents” value at P2X4R (after 10 μM metal) lay within 20 to 30 min. Further, the “increase of ATP-gated currents” value at P2X2a-C430S [6] (10 μM metal, ATP ~EC15) turned out to be 1.9 ± 0.2 fold; on P2X2bR [3] (10 μM metal, ATP ~EC15), 2.5 ± 0.5 fold. Moreover, the “effect on rate of deactivation” value on P2X2bR [4] (mercury) is reported as “not significantly affected”.

For the compound `OO` [H2O2, hydrogen peroxide], at P2X2aR [1] (1 mM H2O2, ATP ~EC15), the “increase of ATP-evoked currents” value is on record as 1.9 ± 0.3 fold. For the same compound, in the data set on P2X4/2a chimera (1 mM H2O2), the “increase of the currents” value worked out at 1.9 ± 0.2 fold. Further, the “currents remaining increased after washout” value in the data set on P2X4/2a chimera (10 min washout after 1 mM H2O2) turned out to be 0.3 ± 0.1 fold. In addition, the “sensitivity to H2O2” value on P2X2a-C430S [5] (oocytes) is given as “totally resistant”; in the data set on P2X4/2b chimera, “totally resistant”; on P2X2a-C430A, “totally resistant”; at P2X2a-C430S [6] (1 mM), “completely resistant”; at P2X2bR [3] (1 mM), “completely resistant”; on P2X2bR [4] it was “totally resistant”. The “effect of concentrations larger than 1 mM on cells” value in the data set with oocytes and HEK293 cells is “cell damage and membrane dissolution”. Moreover, the “increase of ATP-gated currents” value on P2X2aR [2] (0.3 mM H2O2, ATP ~EC15, oocytes) amounted to 2.8 ± 0.3 fold. The “inhibition of receptor activity” value at P2X4R (1 mM H2O2) is reported as 43.8 ± 0.1%.

Consider `CO/C(=C/C(N)=O)[C@H](C)[C@H](/C=C/c1csc(-c2csc([C@@H](C)/C=C/C=C/C(C)C)n2)n1)OC` [myxothiazol], for which the “increase of ATP-evoked currents” value at P2X2aR [1] (100 nM myxothiazol, 3 μM ATP) came out at 1.95 ± 0.14 fold. The “effect on P2X2R-mediated currents” value in the data set with P2X2R was “transient increase followed by sustained inhibition”. Besides, the “effect of higher concentrations on receptor activity (biphasic)” value at P2X2aR [2] (higher concentrations, data not shown, expression system not given) is listed as “inhibited the receptor activity”. Further, the “maximal potentiation of ATP-evoked currents” value on P2X2aR [2] (myxothiazol applied 10 min prior to ATP, oocytes) was found to be 1.95 ± 0.18 fold. For the same compound, the sensitivity to myxothiazol entry on P2X2bR [3] and on P2X2bR [4] was “insensitive” each time.
